Measured values taken from US10070645B2, “N-cycloalkyl-N-{[2-(1-substitutedcycloalkyl)phenyl]methylene}-(thio)carboxamide derivatives” (BAYER CROPSCIENCE AKTIENGESELLSCHAFT, priority 2013, dated 2018).

Experiment: log P by HPLC on a reversed-phase column (C 18), EEC Directive 79/831 Annex V.A8
Type: physicochemical
Details: 0.1% aqueous formic acid and acetonitrile; for logP: 40° C., linear gradient 10% to 90% acetonitrile; for chromatographic logP: HPLC C 18, 40° C.
Description: In table 1, the log P values were determined in accordance with EEC Directive 79/831 Annex V.A8 by HPLC (High Performance Liquid Chromatography) on a reversed-phase column (C 18), using the method described below:
Temperature: 40° C.; Mobile phases: 0.1% aqueous formic acid and acetonitrile; linear gradient from 10% acetonitrile to 90% acetonitrile.
Calibration was carried out using unbranched alkan-2-ones (comprising 3 to 16 carbon atoms) with known log P values (determination of the log P values by the retention times using linear interpolation between two successive alkanones). lambda-max-values were determined using UV-spectra from 200 nm to 400 nm and the peak values of the chromatographic signals.

[1] = HPLC, reversed-phase column (C 18)
[2] = HPLC on reversed-phase column (C 18)
[3] = reversed-phase HPLC column (C 18), Table 4 (aldehydes of formula IV)
[4] = reversed-phase HPLC column (C 18), Table 3 (amines of formula II)

Row | Compound | logP [1] | other results
1 | COc1ccc(CN(C(=S)c2c(C(F)F)nn(C)c2F)C2CC2)c(C2(C)CC2)c1 [I.030] | 4.34 | –
2 | Cn1nc(C(F)F)c(C(=O)N(Cc2c(C3(C)CC3(Cl)Cl)ccc(Cl)c2Cl)C2CC2)c1F (racemic) [I.173] | – | logP [2]: 4.71
3 | Cc1ccc(C2(C)CC2)c(C=O)c1 [IV.12, 5-methyl-2-(1-methylcyclopropyl)benzaldehyde] | – | chromatographic logP [3]: 3.55
4 | Cc1ccc(CN(C(=O)c2c(C(F)F)nn(C)c2F)C2CC2)c(C2(C)CC2)c1 [I.026] | 4.21 | –
5 | Cc1ccc(C2(Cl)CC2)c(CN(C(=O)c2c(C(F)F)nn(C)c2Cl)C2CC2)c1 [I.133] | 4.06 | –
6 | Cn1ccc(-c2ccc(CN(C(=O)c3c(C(F)F)nn(C)c3F)C3CC3)c(C3(C)CC3)c2)c1 [I.034] | 4.15 | –
7 | Cc1ccc(C2(C)CC2(Cl)Cl)c(CN(C(=O)c2c(C(F)F)nn(C)c2F)C2CC2)c1Cl (racemic) [I.178] | – | logP [2]: 4.67
8 | Cc1ccc(C2(C(F)(F)F)CC2)c(CN(C(=O)c2c(C(F)F)nn(C)c2F)C2CC2)c1 [I.167] | – | logP [2]: 4.11
9 | CC1(c2ccc(F)cc2CNC2CC2)CC1 [II.11, N-[5-fluoro-2-(1-methylcyclopropyl)benzyl]cyclopropanamine] | – | chromatographic logP [4]: 1.37
10 | Cn1nc(C(F)F)c(C(=S)N(Cc2cc(Cl)ccc2C2(C)CC2)C2CC2)c1F [I.062] | 4.82 | –
11 | C#CC1(c2ccc(Cl)cc2CN(C(=O)c2c(C(F)F)nn(C)c2F)C2CC2)CC1 [I.090] | 3.73 | –
12 | CCC1(c2ccc(Cl)cc2CN(C(=O)c2c(C(F)F)nn(C)c2Cl)C2CC2)CC1 [I.111] | 4.77 | –
13 | Cn1nc(C(F)F)c(C(=O)N(Cc2ccc(F)cc2C2(C(F)F)CC2)C2CC2)c1Cl [I.145] | 3.55 | –
14 | CCCC1(c2ccc(C)cc2CNC2CC2)CC1 [II.33, N-[5-methyl-2-(1-propylcyclopropyl)benzyl]cyclopropanamine] | – | chromatographic logP [4]: 1.81
15 | Cn1nc(C(F)F)c(C(=O)N(Cc2c(C(F)(F)F)cccc2C2(C)CC2)C2CC2)c1F [I.088] | 4.46 | –
16 | Cn1nc(C(F)F)c(C(=O)N(Cc2ccc(C3CCOCC3)cc2C2(C)CC2)C2CC2)c1F [I.047] | 3.87 | –
17 | C#CC1(c2ccc(C)cc2CNC2CC2)CC1 [II.17, N-[2-(1-ethynylcyclopropyl)-5-methylbenzyl]cyclopropanamine] | – | chromatographic logP [4]: 1.15
18 | COC1(c2ccccc2CN(C(=O)c2c(C(F)F)nn(C)c2Cl)C2CC2)CC1 [I.117] | 3.42 | –
19 | Cc1ccc(C2(Cl)CC2)c(CN(C(=O)c2c(C(F)F)nn(C)c2F)C2CC2)c1 [I.132] | 3.89 | –
20 | CC1(c2ccc(Cl)cc2C=O)CC1 [IV.10, 5-chloro-2-(1-methylcyclopropyl)benzaldehyde] | – | chromatographic logP [3]: 3.76
21 | Cc1ccc(C2(CC(C)C)CC2)c(CN(C(=O)c2c(C(F)F)nn(C)c2F)C2CC2)c1 [I.159] | – | logP [2]: 5.36
22 | COC1(c2ccccc2CN(C(=O)c2c(C(F)F)nn(C)c2F)C2CC2)CC1 [I.116] | 3.27 | –
23 | Cn1nc(C(F)F)c(C(=S)N(Cc2ccccc2C2(C)CC2)C2CC2)c1Cl [I.004] | 4.63 | –

Row | Compound | logP [1] | other results
24 | Cn1nc(C(F)F)c(C(=O)N(Cc2ccc(-c3ccc4ncccc4c3)cc2C2(C)CC2)C2CC2)c1F [I.046] | 3.09 | –
25 | Cn1nc(C(F)F)c(C(=O)N(Cc2cc(Cl)c(Cl)cc2C2(C)CC2)C2CC2)c1F [I.180] | – | logP [2]: 4.73
26 | C#CC1(c2ccc(C)cc2CN(C(=O)c2c(C(F)F)nn(C)c2F)C2CC2)CC1 [I.092] | 3.68 | –
27 | O=Cc1cc(Cl)ccc1C1(C(=O)O)CC1 [IV.24, 1-(4-chloro-2-formylphenyl)cyclopropanecarboxylic acid] | – | chromatographic logP [3]: 1.91
28 | CC1(c2c(CNC3CC3)ccc3c2OCO3)CC1 [II.03, N-{[4-(1-methylcyclopropyl)-1,3-benzodioxol-5-yl]methyl}cyclopropanamine] | – | chromatographic logP [4]: 1.43
29 | Cc1ccc(C2(C)CC2Cl)c(CN(C(=O)c2c(C(F)F)nn(C)c2F)C2CC2)c1Cl (stereo not drawn) [I.140] | 4.58 | –
30 | Cn1nc(C(F)F)c(C(=O)N(Cc2ccc(C3=CCOCC3)cc2C2(C)CC2)C2CC2)c1F [I.037] | 3.94 | –
31 | Cn1nc(C(F)F)c(C(=O)N(Cc2cccc(Cl)c2C2(C)CC2)C2CC2)c1F [I.005] | 4.30 | –
32 | Cn1nc(C(F)F)c(C(=O)N(Cc2ccccc2C2(C(F)F)CC2)C2CC2)c1F [I.142] | 3.33 | –
33 | COC1(c2ccc(C)cc2CN(C(=O)c2c(C(F)F)nn(C)c2Cl)C2CC2)CC1 [I.123] | 3.74 | –
34 | CC(C)c1ccc(C2(C)CC2)c(CN(C(=O)c2c(C(F)F)nn(C)c2F)C2CC2)c1 [I.070] | 4.61 | –
35 | CCC1(c2ccccc2CN(C(=O)c2c(C(F)F)nn(C)c2F)C2CC2)CC1 [I.096] | 4.21 | –
36 | COc1cc(CN(C(=S)c2c(C(F)F)nn(C)c2F)C2CC2)c(C2(C)CC2)cc1OC [I.055] | 3.96 | –
37 | COc1ccc(CN(C(=S)c2c(C(F)F)nn(C)c2Cl)C2CC2)c(C2(C)CC2)c1 [I.031] | 4.51 | –
38 | COc1cc(CN(C(=S)c2c(C(F)F)nn(C)c2Cl)C2CC2)c(C2(C)CC2)cc1OC [I.056] | 4.09 | –
39 | Cn1nc(C(F)F)c(C(=O)N(Cc2cc(Cl)ccc2C2(C(F)(F)F)CC2)C2CC2)c1Cl [I.164] | – | logP [2]: 4.30
40 | Fc1ccc(C2(C(F)(F)F)CC2)c(CNC2CC2)c1 [II.46, N-{5-fluoro-2-[1-(trifluoromethyl)cyclopropyl]benzyl}cyclopropanamine] | – | chromatographic logP [4]: 1.32
41 | Cn1nc(C(F)F)c(C(=O)N(Cc2cccc(C3CCCCC3)c2C2(C)CC2)C2CC2)c1F [I.007] | 5.74 | –
42 | FC(F)C1(c2ccc(Cl)cc2CNC2CC2)CC1 [II.38, N-{5-chloro-2-[1-(difluoromethyl)cyclopropyl]benzyl}cyclopropanamine] | – | chromatographic logP [4]: 1.16
43 | COc1cc(CNC2CC2)c(C2(C)CC2)cc1OC [II.08, N-[4,5-dimethoxy-2-(1-methylcyclopropyl)benzyl]cyclopropanamine] | – | chromatographic logP [4]: 1.26
44 | Cn1nc(C(F)F)c(C(=S)N(Cc2cc(F)ccc2C2(C)CC2)C2CC2)c1F [I.068] | 4.49 | –
45 | Cc1ccc(C2(C3CC3)CC2)c(CN(C(=O)c2c(C(F)F)nn(C)c2F)C2CC2)c1 [I.134] | 4.59 | –
46 | Cn1nc(C(F)F)c(C(=S)N(Cc2ccccc2C2(C)CC2)C2CC2)c1F [I.003] | 4.46 | –

Row | Compound | logP [1] | other results
47 | Cc1ccc(C2(C3CC3)CC2)c(CN(C(=O)c2c(C(F)F)nn(C)c2Cl)C2CC2)c1 [I.135] | 4.72 | –
48 | Cc1cc(C=O)c(C2(C)CC2)cc1C [IV.07, 4,5-dimethyl-2-(1-methylcyclopropyl)benzaldehyde] | – | chromatographic logP [3]: 3.85
49 | Cn1nc(C(F)F)c(C(=O)N(Cc2cc(F)ccc2C2(C(F)F)CC2)C2CC2)c1Cl [I.152] | 3.53 | –
50 | Cc1ccc(C2(Cl)CC2)c(CNC2CC2)c1 [II.34, N-[2-(1-chlorocyclopropyl)-5-methylbenzyl]cyclopropanamine] | – | chromatographic logP [4]: 1.34
51 | CCOC1(c2ccc(C)cc2CN(C(=O)c2c(C(F)F)nn(C)c2Cl)C2CC2)CC1 [I.138] | 4.21 | –
52 | Cn1nc(C(F)F)c(C(=O)N(Cc2cc(Br)ccc2C2(C)CC2)C2CC2)c1Cl [I.057] | 4.56 | –
53 | C[Si](C)(C)C#CC1(c2ccc(Cl)cc2CNC2CC2)CC1 [II.18, N-(5-chloro-2-{1-[(trimethylsilyl)ethynyl]cyclopropyl}benzyl)cyclopropanamine] | – | chromatographic logP (Table 3 (amines of formula II)): 2.07
54 | CCC1(c2cccc(F)c2CN(C(=O)c2c(C(F)F)nn(C)c2F)C2CC2)CC1 [I.114] | 4.19 | –
55 | Cc1ccc(C2(C)CC2)c(CNC2(C#N)CC2)c1 [II.14, 1-{[5-methyl-2-(1-methylcyclopropyl)benzyl]amino}cyclopropanecarbonitrile] | – | chromatographic logP [4]: 4.07
56 | Cn1nc(C(F)F)c(C(=O)N(Cc2cc(F)c(F)cc2C2(C)CC2)C2CC2)c1Cl [I.049] | 4.16 | –
57 | CCC1(c2cc(Cl)ccc2CN(C(=O)c2c(C(F)F)nn(C)c2Cl)C2CC2)CC1 [I.103] | 4.82 | –
58 | Cn1nc(C(F)F)c(C(=O)N(Cc2ccccc2C2(C)CC2)C2CC2)c1F [I.001] | 3.85 | –
59 | Cn1nc(C(F)F)c(C(=O)N(Cc2cccc(C3=CCCCC3)c2C2(C)CC2)C2CC2)c1F [I.014] | 5.59 | –
60 | Cc1ccc(C=O)c(C2(C)CC2)c1 [IV.04, 4-methyl-2-(1-methylcyclopropyl)benzaldehyde] | – | chromatographic logP [3]: 3.44
61 | COc1cc(C=O)c(C2(C)CC2)cc1OC [IV.08, 4,5-dimethoxy-2-(1-methylcyclopropyl)benzaldehyde] | – | chromatographic logP [3]: 2.56
62 | CC1(c2ccccc2C=O)CC1 [IV.01, 2-(1-methylcyclopropyl)benzaldehyde] | – | chromatographic logP [3]: 3.02
63 | CC(C)CC1(c2cc(Cl)ccc2CN(C(=O)c2c(C(F)F)nn(C)c2Cl)C2CC2)CC1 [I.158] | – | logP [2]: 5.59
64 | C=Cc1ccc(C2(C)CC2)c(CN(C(=O)c2c(C(F)F)nn(C)c2F)C2CC2)c1 [I.080] | 4.34 | –
65 | Cn1nc(C(F)F)c(C(=O)N(Cc2ccc(F)cc2C2(C)CC2)C2CC2)c1Cl [I.022] | 4.06 | –
66 | Cn1nc(C(F)F)c(C(=S)N(Cc2cccc(F)c2C2(C)CC2)C2CC2)c1F [I.010] | 4.49 | –
67 | Cc1ccc(C2(C(F)F)CC2)c(CN(C(=O)c2c(C(F)F)nn(C)c2Cl)C2CC2)c1 [I.154] | 3.76 | –
68 | CCC1(c2cc(C)c(F)cc2CNC2CC2)CC1 [II.27, N-[2-(1-ethylcyclopropyl)-5-fluoro-4-methylbenzyl]cyclopropanamine] | – | chromatographic logP [4]: 1.69
69 | CCC1(c2ccc(C)cc2CN(C(=O)c2c(C(F)F)nn(C)c2F)C2CC2)CC1 [I.113] | 4.61 | –
